In patent US12245997B2, “Endoxifen for the treatment of bipolar I disorder” (priority 2020, dated 2025):

How the values were obtained:
[1] = tested on: PKC; assay: Inhibition of PKC activity; format: biochemical; details: relative to tamoxifen
[2] = Therapeutic index comparison; details: as compared to divalproex sodium
[3] = tested on: PKC; details: cited from earlier work
[4] = in human; cited from earlier work

Row | SMILES | potency in inhibiting the PKC activity compared to tamoxifen [1] | therapeutic index [2] | PKC inhibition [3] | antimanic properties [4]
1 | CC/C(=C(\c1ccc(O)cc1)c1ccc(OCCNC)cc1)c1ccccc1.O=C(O)CC(O)(CC(=O)O)C(=O)O [Endoxifen, (Z)-1-(4-Hydroxyphenyl)-1-{4-[2-(monomethylamino)ethoxy]phenyl}-2-phenyl-1-butene citrate] | four-fold higher potency | broad therapeutic index | – | –
2 | CC/C(=C(\c1ccccc1)c1ccc(OCCN(C)C)cc1)c1ccccc1 [Tamoxifen] | – | – | known to inhibit PKC | demonstrate antimanic properties in human
